Among the data in ChEMBL document CHEMBL4699499, “Biochemical, cellular and structural characterization of novel and selective ERK3 inhibitors” (Bioorg Med Chem Lett, 2020) are Kd values, retold here.

Usually Kd stands for the concentration at which binding is half-saturated.

Experiment [1] concerns the target T1, Mitogen-activated protein kinase 6 (Homo sapiens, UniProt Q16659). The experiment in a line: Binding affinity to LPP-dephosphorylated recombinant wild-type ERK3 (9 to 327 residues) (unknown origin) expressed in Escherichia coli by microscale thermophoresis assay. (Microscale thermophoresis detects binding through changes in fluorescence in a small temperature gradient.)

In experiment [2] the target is T1, Mitogen-activated protein kinase 6. In words: Binding affinity to recombinant wild-type ERK3 (9 to 327 residues) (unknown origin) expressed in Escherichia coli by microscale thermophoresis assay.
For experiment [3] the target is unchanged. In words: Binding affinity to wild-type human partial length ERK3 (M1 to P413 residues) expressed in bacterial expression system by kinomescan method.
The target is the same in experiment [4]. The experiment in a line: Binding affinity to recombinant wild-type ERK3 (9 to 327 residues) (unknown origin) expressed in Sf21 insect cells by microscale thermophoresis assay.

T1 sequence (Q16659 whole entry, the tested form may be a part): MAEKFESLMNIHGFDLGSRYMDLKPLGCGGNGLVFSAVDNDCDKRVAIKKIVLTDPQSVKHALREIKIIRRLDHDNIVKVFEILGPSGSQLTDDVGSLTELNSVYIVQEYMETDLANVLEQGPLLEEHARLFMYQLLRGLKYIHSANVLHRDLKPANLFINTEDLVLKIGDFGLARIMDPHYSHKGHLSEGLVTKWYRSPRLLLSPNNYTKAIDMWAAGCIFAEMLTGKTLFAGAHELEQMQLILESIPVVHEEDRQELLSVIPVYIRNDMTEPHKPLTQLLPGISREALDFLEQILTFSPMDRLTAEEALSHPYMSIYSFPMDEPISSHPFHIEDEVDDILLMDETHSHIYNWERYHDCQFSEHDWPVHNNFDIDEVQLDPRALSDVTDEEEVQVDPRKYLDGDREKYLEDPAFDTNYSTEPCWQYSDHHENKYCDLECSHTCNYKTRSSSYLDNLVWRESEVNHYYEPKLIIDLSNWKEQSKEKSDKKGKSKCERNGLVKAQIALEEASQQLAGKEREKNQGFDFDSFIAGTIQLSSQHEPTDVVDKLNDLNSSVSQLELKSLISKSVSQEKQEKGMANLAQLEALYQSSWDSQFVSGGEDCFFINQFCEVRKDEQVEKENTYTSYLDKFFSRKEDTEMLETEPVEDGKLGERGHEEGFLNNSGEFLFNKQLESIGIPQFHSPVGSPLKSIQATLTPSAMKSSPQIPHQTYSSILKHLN

Regarding `Nc1n[nH]c2nnc(-c3c(-c4ccccc4)nn4ccccc34)cc12`, the dissociation constant (Kd) in experiment [1] was more than 10000 nM.

`O=C(Nc1ccc2[nH]nc(-c3ccncc3)c2c1)[C@@H]1CCN(CC(=O)N2CCN(c3ccc(-c4ncccn4)cc3)CC2)C1`: the Kd in experiment [2] worked out at 14300 nM.

With `COc1ccc(-n2nnc3cnc(N[C@H]4CC[C@H](C(N)=O)CC4)nc32)cc1`, the dissociation constant (Kd) in experiment [3] was found to be 980 nM; in experiment [2], 1300 nM; in experiment [1], 1500 nM; in experiment [4], 1100 nM.
